Key:
Format in all cases: organism-based
Settings in all cases: in vivo
Artemia salina [1] = assay: Toxicity in Artemia salina
Artemia salina [2] = assay: Toxicity in Artemia salina at 200 ug/mL
Artemia salina [3] = assay: Toxicity in Artemia salina at 20 ug/mL

COC(=O)/C=C/C(=O)N[C@@H](Cc1ccc(O)c(Cl)c1)C(=O)O [(+)-XYLARIAMIDE A]
Activity (Artemia salina [1]): Non-toxic

COC(=O)/C=C/C(=O)N[C@H](Cc1ccc(O)c(Cl)c1)C(=O)O [(-)-XYLARIAMIDE A]
Activity (Artemia salina [2]): 71%
Activity (Artemia salina [3]): 0%

— ChEMBL document CHEMBL1158768, “Isolation and structure elucidation of the new fungal metabolite (-)-xylariamide A” (J Nat Prod, 2005)
